Experimental data taken from patent US7964735B2, “Insecticidal 3-acylaminobenzanilides” (Bayer Cropscience AG, priority 2005, dated 2011).

test system: third stage larvae of Spodoptera litura; assay: Test to larvae of Spodoptera litura (leaf immersion); format: in vivo; settings: efficacious component concentration 20 ppm; batata leaves immersed; 25° C.; after 7 days; average of two dishes
Experimental: (§1) • Sample Solution Preparation • Solvent: dimethylformamide 3 part by weight • Emulsifier: polyoxyethylene alkyl phenyl ether 1 part by weight
(§2) To prepare a proper active compound, the active compound 1 part by weight was mixed with the above-mentioned solvent containing the above-mentioned emulsifier and the mixture was diluted with water to a prescribed concentration.
Leaves of batata were immersed in the sample solution diluted with water to a prescribed concentration and then the solution was dried out by air and the resulting leaves were put in a laboratory dish and 10 third stage larvae of Spodoptera litura were released and put in a greenhouse at a temperature 25° C. and the leaves of batata were added on second day and fourth day and the number of dead larvae was investigated after 7 days and the ratio of the dead larvae was calculated.
The results were the averages of two laboratory dishes for respective 1 group in this test.

SMILES	insecticidal ratio (ratio of the dead larvae) [%]
CCc1cc(C(F)(C(F)(F)F)C(F)(F)F)cc(C)c1NC(=O)c1cccc(NC(=O)c2cnccc2C(F)(F)F)c1 [Compound 1, 3-[4-(trifluoromethyl)nicotinyl]amino-N-(2-ethyl-6-methyl-4-heptafluoroisopropylphenyl)benzamide]	100
CCc1cc(C(F)(C(F)(F)F)C(F)(F)F)cc(C)c1NC(=O)c1cccc(NC(=O)c2ccc(Cl)nc2)c1 [Compound 3]	100
CCc1cc(C(F)(C(F)(F)F)C(F)(F)F)cc(C)c1NC(=O)c1cccc(NC(=O)c2ncc(C(F)(F)F)cc2Cl)c1 [Compound 13]	100
CCc1cc(C(F)(C(F)(F)F)C(F)(F)F)cc(C)c1NC(=O)c1cccc(NC(=O)c2cc(Cl)sc2Cl)c1 [Compound 24]	100
CCc1cc(C(F)(C(F)(F)F)C(F)(F)F)cc(C)c1NC(=O)c1cccc(NC(=O)c2cccs2)c1 [Compound 30]	100
CCc1cc(C(F)(C(F)(F)F)C(F)(F)F)cc(C)c1NC(=O)c1cccc(NC(=O)c2ccco2)c1 [Compound 32]	100
CCc1cc(C(F)(C(F)(F)F)C(F)(F)F)cc(C)c1NC(=O)c1cccc(NC(=O)c2snnc2C)c1 [Compound 35]	100
CCc1cc(C(F)(C(F)(F)F)C(F)(F)F)cc(C)c1NC(=O)c1cccc(NC(=O)c2ccccc2I)c1 [Compound 36]	100
Cc1cc(C(F)(C(F)(F)F)C(F)(F)F)cc(I)c1NC(=O)c1cccc(NC(=O)c2ccccc2Cl)c1 [Compound 37]	100
CCc1cc(C(F)(C(F)(F)F)C(F)(F)F)cc(C)c1NC(=O)c1cccc(NC(=O)c2ccccc2Cl)c1 [Compound 38]	100
CCc1cc(C(F)(C(F)(F)F)C(F)(F)F)cc(C)c1NC(=O)c1cccc(NC(=O)c2ccc(OC(F)(F)F)cc2)c1 [Compound 39]	100
CCc1cc(C(F)(C(F)(F)F)C(F)(F)F)cc(C)c1NC(=O)c1cccc(NC(=O)c2ccccc2Br)c1 [Compound 40]	100
CCc1cc(C(F)(C(F)(F)F)C(F)(F)F)cc(C)c1NC(=O)c1cccc(NC(=O)c2cccc(Br)c2)c1 [Compound 41]	100
CCc1cc(C(F)(C(F)(F)F)C(F)(F)F)cc(C)c1NC(=O)c1cccc(NC(=O)c2ccc(Br)cc2)c1 [Compound 42]	100
CCc1cc(C(F)(C(F)(F)F)C(F)(F)F)cc(C)c1NC(=O)c1cccc(NC(=O)c2ccc(Cl)c(Cl)c2)c1 [Compound 43]	100
CCc1cc(C(F)(C(F)(F)F)C(F)(F)F)cc(C)c1NC(=O)c1cccc(NC(=O)c2ccc(Cl)cc2Cl)c1 [Compound 44]	100
CCc1cc(C(F)(C(F)(F)F)C(F)(F)F)cc(C)c1NC(=O)c1cccc(NC(=O)c2cc(Cl)cc(Cl)c2)c1 [Compound 45]	100
CCc1cc(C(F)(C(F)(F)F)C(F)(F)F)cc(C)c1NC(=O)c1cccc(NC(=O)c2c(Cl)cccc2Cl)c1 [Compound 46]	100
CCc1cc(C(F)(C(F)(F)F)C(F)(F)F)cc(C)c1NC(=O)c1cccc(NC(=O)c2cccc(Cl)c2Cl)c1 [Compound 47]	100
CCc1cc(C(F)(C(F)(F)F)C(F)(F)F)cc(C)c1NC(=O)c1cccc(NC(=O)c2cc(Cl)ccc2Cl)c1 [Compound 48]	100

SMILES	insecticidal ratio (ratio of the dead larvae) [%]
CCc1cc(C(F)(C(F)(F)F)C(F)(F)F)cc(C)c1NC(=O)c1cccc(NC(=O)c2ccc(C(F)(F)F)cc2)c1 [Compound 49]	100
CCc1cc(C(F)(C(F)(F)F)C(F)(F)F)cc(C)c1NC(=O)c1cccc(NC(=O)c2ccccc2C(F)(F)F)c1 [Compound 51]	100
CCc1cc(C(F)(C(F)(F)F)C(F)(F)F)cc(C)c1NC(=O)c1cccc(NC(=O)c2c(F)cc(F)cc2F)c1 [Compound 52]	100
CCc1cc(C(F)(C(F)(F)F)C(F)(F)F)cc(C)c1NC(=O)c1cccc(NC(=O)c2ccccc2[N+](=O)[O-])c1 [Compound 53]	100
CCc1cc(C(F)(C(F)(F)F)C(F)(F)F)cc(C)c1NC(=O)c1cccc(NC(=O)c2c(F)cccc2F)c1 [Compound 54]	100
CCc1cc(C(F)(C(F)(F)F)C(F)(F)F)cc(C)c1NC(=O)c1cccc(NC(=O)c2cccc(F)c2F)c1 [Compound 55]	100
CCc1cc(C(F)(C(F)(F)F)C(F)(F)F)cc(C)c1NC(=O)c1cccc(NC(=O)c2ccc(F)cc2F)c1 [Compound 56]	100
CCc1cc(C(F)(C(F)(F)F)C(F)(F)F)cc(C)c1NC(=O)c1cccc(NC(=O)c2cccc(Cl)c2)c1 [Compound 58]	100
CCc1cc(C(F)(C(F)(F)F)C(F)(F)F)cc(C)c1NC(=O)c1cccc(NC(=O)c2ccc(Cl)cc2)c1 [Compound 59]	100
CCc1cc(C(F)(C(F)(F)F)C(F)(F)F)cc(C)c1NC(=O)c1cccc(NC(=O)c2ccc(OC)cc2)c1 [Compound 60]	100
CCc1cc(C(F)(C(F)(F)F)C(F)(F)F)cc(C)c1NC(=O)c1cccc(NC(=O)c2ccc(F)cc2)c1 [Compound 61]	100
CCc1cc(C(F)(C(F)(F)F)C(F)(F)F)cc(C)c1NC(=O)c1cccc(NC(=O)c2cccc(F)c2)c1 [Compound 62]	100
CCc1cc(C(F)(C(F)(F)F)C(F)(F)F)cc(C)c1NC(=O)c1cccc(NC(=O)c2ccccc2F)c1 [Compound 63]	100
CCc1cc(C(F)(C(F)(F)F)C(F)(F)F)cc(C)c1NC(=O)c1cccc(NC(=O)c2ccc(C)cc2)c1 [Compound 64]	100
CCc1cc(C(F)(C(F)(F)F)C(F)(F)F)cc(C)c1NC(=O)c1cccc(NC(=O)c2ccccc2C)c1 [Compound 66]	100
Cc1cc(C(F)(C(F)(F)F)C(F)(F)F)cc(C)c1NC(=O)c1cccc(NC(=O)c2c(F)cccc2F)c1 [Compound 72]	100
Cc1cc(C(F)(C(F)(F)F)C(F)(F)F)cc(C)c1NC(=O)c1cccc(NC(=O)c2ccc(Cl)cc2)c1 [Compound 77]	100
Cc1cc(C(F)(C(F)(F)F)C(F)(F)F)cc(C)c1NC(=O)c1cccc(NC(=O)c2ccccc2)c1 [Compound 88]	100
Cc1cc(C(F)(C(F)(F)F)C(F)(F)F)cc(C)c1NC(=O)c1cccc(NC(=O)c2ccccc2Cl)c1F [Compound 134]	100
Cc1cc(C(F)(C(F)(F)F)C(F)(F)F)cc(C)c1NC(=O)c1cccc(NC(=O)c2ccc(Cl)cc2)c1F [Compound 139]	100

test system: organic phosphorus agent- and carbamate agent-resistant Myzus persicasypii; assay: Test to organic phosphorus agent- and carbamate agent-resistant Myzus persicasypii (spray on eggplant); format: in vivo; settings: efficacious component concentration 500 ppm; sprayed on eggplant; 28° C.; after 7 days from spraying
Experimental: as §1, §2
30 grown organic phosphorus agent- and carbamate agent-resistant Myzus persicasypii were inoculated in each vinyl pot with 6 cm diameter in which eggplant seeding was done and after 1 day from the inoculation, the above produced active compound diluted with water to have a prescribed concentration was sufficiently sprayed by a spray gun. After the spraying, the vinyl pots were left in a greenhouse at 28° C. and the insect extermination ratio was calculated after 7 days from spraying. The test was repeated two times.

SMILES	insecticidal ratio (insect extermination ratio) [%]
CCc1cc(C(F)(C(F)(F)F)C(F)(F)F)cc(C)c1NC(=O)c1cccc(NC(=O)c2cnccc2C(F)(F)F)c1 [Compound 1, 3-[4-(trifluoromethyl)nicotinyl]amino-N-(2-ethyl-6-methyl-4-heptafluoroisopropylphenyl)benzamide]	100
CCc1cc(C(F)(C(F)(F)F)C(F)(F)F)cc(C)c1NC(=O)c1cccc(NC(=O)c2ccccc2Cl)c1 [Compound 57]	100
CCc1cc(C(F)(C(F)(F)F)C(F)(F)F)cc(C)c1NC(=O)c1cccc(NC(=O)c2cccc(Cl)c2)c1 [Compound 58]	100
CCc1cc(C(F)(C(F)(F)F)C(F)(F)F)cc(C)c1NC(=O)c1cccc(NC(=O)c2ccc(F)cc2)c1 [Compound 61]	100
CCc1cc(C(F)(C(F)(F)F)C(F)(F)F)cc(C)c1NC(=O)c1cccc(NC(=O)c2ccccc2F)c1 [Compound 63]	100
Cc1cc(C(F)(C(F)(F)F)C(F)(F)F)cc(C)c1NC(=O)c1cccc(NC(=O)c2ccc(Cl)cc2)c1F [Compound 139]	100

test system: not given; assay: not given; settings: not given

melting point [°C]	SMILES
141 to 145	Cc1cc(C(F)(C(F)(F)F)C(F)(F)F)cc(C)c1NC(=O)c1cccc(NC(=O)c2ccccc2Cl)c1 [Compound 75, 3-(2-chlorobenzoyl)amino-N-(2,6-dimethyl-4-heptafluoroisopropylphenyl)benzamide]
